Measured values as given in patent publication US20240122932A1, “Methods of Treating B-Cell Malignancy Using Bcl-2 Inhibitor” (BeiGene Switzerland GmbH, priority 2021, published 2024).

Columns and labels:
[1] = system: RS4;11 acute lymphoblastic leukemia (ALL) subcutaneous xenograft; test: RS4;11 ALL subcutaneous xenograft model; assay type: in vivo, NCG mice
Experimental: The RS4;11 cells are of acute lymphoblastic leukemia (ALL) origin and were obtained from American Type Culture Collection (ATCC CRL-1873, Manassas, VA, DC, USA). Cells were grown in RPM 1640 medium (Corning, Cat #10-040-CVR), supplemented with 10% (v/v) fetal bovine serum (Gibco, Cat #10099-141C), and 100 μg/mL of penicillin and streptomycin (Gibco, Cat #15140-122). RS4;11 cells were maintained as suspension cell cultures at 37° C. in a 5% CO2 atmosphere. Five to six-week-old female NCG mice were purchased from Gempharmatech of Information Technology Center. All animals were maintained under specific pathogen free (SPF) “full barrier” condition with free access to food and water. Mice were group-housed under a 12 h light:dark cycle (lights on at 08:00 h), at a temperature of 20-26° C. and 37-62% humidity in IVC cages (Lingyunboji (Beijing) Technology Co., Ltd.). Mice were fed with complete granulated feed with Co60 radiosterilization (Beijing Ke Ao Xie Li Feed Co., Ltd.).
(§1) On the day of implantation, RS4;11 cells were harvested and re-suspended with appropriate volume of ice cold DPBS and same volume of Matrigel (Corning, Cat #356237) to give a final concentration of 5×10^7 cells/mL. Re-suspended cells were placed on ice prior to inoculation. The right front flank region of each mouse was cleaned with 75% ethanol prior to cell inoculation. Each animal was injected subcutaneously with 1×10^7 cells in 200 μL of cell suspension in the right front flank via a 26-gauge needle. After implantation, primary tumor volume was measured in two dimensions using a caliper.
Animals were randomly assigned into 10 groups with 10 mice per group according to body weight and tumor volume (100 mm^3-200 mm^3). The groups consisted of vehicle group, 5, 15, 50 mg/kg of venetoclax with QD dosing, 5, 15, 50 mg/kg of Compound 1 with QD dosing, and 2.5, 7.5, 25 mg/kg of Compound 1 with BID dosing. Treatments were administered by oral gavage (p.o.) in a volume of 10 mL/kg body weight. Body weight was assessed immediately before dosing and volume dosed was adjusted accordingly.
(§2) Individual body weight was recorded twice weekly, with mice being monitored daily for clinical signs of toxicity for the duration of the study. Mice were euthanized using carbon dioxide when their tumor volume reached 2,000 mm^3, the tumor was ulcerated, or body weight loss exceeded 20%.
Tumor volume was calculated using the formula: V=0.5×(a×b^2) where a and b are the long and short diameters of the tumor, respectively.

[2] = system: Toledo diffuse large B cell lymphoma (DLBCL) subcutaneous xenograft; test: Toledo DLBCL subcutaneous xenograft model; assay type: in vivo, NCG mice
Experimental: Toledo cells are of diffuse large B cell lymphoma (DLBCL) origin and were obtained from American Type Culture Collection (ATCC CRL-2631, Manassas, VA, DC, USA). Cells were grown in RPMI 1640 medium (Corning. Cat #10-040-CVR), supplemented with 10% (v/v) fetal bovine serum (Gibco, Cat #10099-141C), and 100 μg/mL of penicillin and streptomycin (Gibco, Cat #15140-122). Toledo cells were maintained as suspension cell cultures at 37° C. in a 5% CO2 atmosphere. Five to six-week-old female NCG mice were purchased from Gempharmatech of Information Technology Center. All animals were maintained under specific pathogen free (SPF) “full barrier” condition with free access to food and water. Mice were group-housed under a 12 h light:dark cycle (lights on at 08:00 h), at a temperature of 21-26° C. and 35-61% humidity in IVC cages (Lingyunboji (Beijing) Technology Co., Ltd.). Mice were fed with complete granulated feed with Co60 radiosterilization (Beijing Ke Ao Xie Li Feed Co., Ltd.).
as §1, with “Toledo” for “RS4;11”, “1.5×10^7” for “5×10^7”, “3×10^6” for “1×10^7”
Transplanted animals were randomized into 10 groups with 10 mice per group on day 0 according to transplantation sequence and body weight. The groups consisted of vehicle group, 5, 15, 50 mg/kg of venetoclax with QD dosing, 5, 15, 50 mg/kg of Compound 1 with QD dosing, and 2.5, 7.5, 25 mg/kg of Compound 1 with BID dosing. Treatments were administered by oral gavage (p.o.) in a volume of 10 mL/kg body weight. Body weight was assessed immediately before dosing and volume dosed was adjusted accordingly.
as §2
Tumor volume was calculated using the formula: V=0.5×(a×b^2) where a and b are the long and short diameters of the tumor, respectively. Tumor growth inhibition (TGI) was calculated using the following formula: % TGI=100×[1−(treatedt−treatedt0)/(vehiclet−vehiclet0)] (treated t=treated tumor volume at time t, treated t0=treated tumor volume at time 0, vehicle t=vehicle tumor volume at time t and vehicle t0=vehicle tumor volume at time 0)

[3] = same total daily doses of 5 and 15 mg/kg

| SMILES | Mean Tumor volume (Day 42) (mm^3 ± SEM) ([1]; 15 mg/kg QD × 42 p.o.) | Mean Tumor volume (Day 42) (mm^3 ± SEM) ([1]; 50 mg/kg QD × 42 p.o.) | Mean Tumor volume (Day 31) (mm^3 ± SEM) ([2]; 5 mg/kg QD × 31 p.o.) | TGI (Day 31) ([2]; 5 mg/kg QD × 31 p.o.) | Mean Tumor volume (Day 31) (mm^3 ± SEM) ([2]; 15 mg/kg QD × 31 p.o.) | TGI (Day 31) ([2]; 15 mg/kg QD × 31 p.o.) | Mean Tumor volume (Day 31) (mm^3 ± SEM) ([2]; 50 mg/kg QD × 31 p.o.) | TGI (Day 31) ([2]; 50 mg/kg QD × 31 p.o.) | further results |
| --- | --- | --- | --- | --- | --- | --- | --- | --- | --- |
| CC(C)c1ccccc1[C@@H]1CCCN1C1CC2(CCN(c3ccc(C(=O)NS(=O)(=O)c4ccc(NCC5CCC(C)(O)CC5)c([N+](=O)[O-])c4)c(Oc4cnc5[nH]ccc5c4)c3)CC2)C1 (stereo partly drawn) [Compound 1, 2-((1H-pyrrolo[2,3-b]pyridin-5-yl)oxy)-N-((4-((((1r,4r)-4-hydroxy-4-methylcyclohexyl)methyl)amino)-3-nitrophenyl)sulfonyl)-4-(2-((S)-2-(2-isopropylphenyl)pyrrolidin-1-yl)-7-azaspiro[3.5]nonan-7-yl)benzamide] | 312.6 ± 57.9 mm^3 | 141.8 ± 5.1 mm^3 | 679.3 ± 63.2 mm^3 | 60% | 267.4 ± 30.4 mm^3 | 84% | 214.8 ± 19.4 mm^3 | 87% | Mean Tumor volume (Day 42) (mm^3 ± SEM) ([1]; 2.5 mg/kg BID × 42 p.o.): 512.5 ± 115.9 mm^3; Mean Tumor volume (Day 42) (mm^3 ± SEM) ([1]; 5 mg/kg QD × 42 p.o.): 820.9 ± 140.2 mm^3; Mean Tumor volume (Day 42) (mm^3 ± SEM) ([1]; 7.5 mg/kg BID × 42 p.o.): 252.8 ± 48.3 mm^3; Mean Tumor volume (Day 42) (mm^3 ± SEM) ([1]; 25 mg/kg BID × 42 p.o.): 136.6 ± 2.2 mm^3; tumor growth inhibition (in words) ([1]; oral administration at well tolerated doses): potently and dose-dependently inhibited tumor growth; efficacy compared with venetoclax [1, 3]: significantly better efficacy when compared with venetoclax; Mean Tumor volume (Day 31) (mm^3 ± SEM) ([2]; 2.5 mg/kg BID × 31 p.o.): 515.7 ± 79.1 mm^3; TGI (Day 31) ([2]; 2.5 mg/kg BID × 31 p.o.): 70%; Mean Tumor volume (Day 31) (mm^3 ± SEM) ([2]; 7.5 mg/kg BID × 31 p.o.): 230.5 ± 25.9 mm^3; TGI (Day 31) ([2]; 7.5 mg/kg BID × 31 p.o.): 86%; Mean Tumor volume (Day 31) (mm^3 ± SEM) ([2]; 25 mg/kg BID × 31 p.o.): 182.5 ± 15.9 mm^3; TGI (Day 31) ([2]; 25 mg/kg BID × 31 p.o.): 89%; anti-tumor effects (in words) ([2]; 2.5, 7.5, 25 mg/kg BID or 5, 15, 50 mg/kg QD, oral): induced dose-dependent anti-tumor effects; efficacy compared with venetoclax [2, 3]: significantly better efficacy when compared with venetoclax |
| CC1(C)CCC(CN2CCN(c3ccc(C(=O)NS(=O)(=O)c4ccc(NCC5CCOCC5)c([N+](=O)[O-])c4)c(Oc4cnc5[nH]ccc5c4)c3)CC2)=C(c2ccc(Cl)cc2)C1 [Venetoclax, reference compound] | 1070.6 ± 181.1 mm^3 | 288.4 ± 37.8 mm^3 | 1256.5 ± 136.5 mm^3 | 26% | 847.8 ± 109.4 mm^3 | 50% | 258.3 ± 22.6 mm^3 | 85% | Mean Tumor volume (Day 42) (mm^3 ± SEM) ([1]; 5 mg/kg QD × 35 p.o.): >2000 mm^3 |
